Experiments:
Rattus norvegicus = assay: Antiinflammatory activity in ip dosed rat carrageenan-induced foot paw edema model measured after 2 hrs by plethysmometric analysis; type: functional
Mus musculus = assay: Analgesic activity in ip dosed albino Swiss mouse assessed as nociceptive response measured after 60 mins by hot plate method; type: functional; conditions: 1 h
[1] = molecular target: T1, Prostaglandin G/H synthase 1 (Ovis aries, UniProt P05979); assay: Inhibition of ovine COX1 using arachidonic acid as substrate preincubated for 5 mins followed by substrate addition by ELISA
T1 sequence (P05979 whole entry): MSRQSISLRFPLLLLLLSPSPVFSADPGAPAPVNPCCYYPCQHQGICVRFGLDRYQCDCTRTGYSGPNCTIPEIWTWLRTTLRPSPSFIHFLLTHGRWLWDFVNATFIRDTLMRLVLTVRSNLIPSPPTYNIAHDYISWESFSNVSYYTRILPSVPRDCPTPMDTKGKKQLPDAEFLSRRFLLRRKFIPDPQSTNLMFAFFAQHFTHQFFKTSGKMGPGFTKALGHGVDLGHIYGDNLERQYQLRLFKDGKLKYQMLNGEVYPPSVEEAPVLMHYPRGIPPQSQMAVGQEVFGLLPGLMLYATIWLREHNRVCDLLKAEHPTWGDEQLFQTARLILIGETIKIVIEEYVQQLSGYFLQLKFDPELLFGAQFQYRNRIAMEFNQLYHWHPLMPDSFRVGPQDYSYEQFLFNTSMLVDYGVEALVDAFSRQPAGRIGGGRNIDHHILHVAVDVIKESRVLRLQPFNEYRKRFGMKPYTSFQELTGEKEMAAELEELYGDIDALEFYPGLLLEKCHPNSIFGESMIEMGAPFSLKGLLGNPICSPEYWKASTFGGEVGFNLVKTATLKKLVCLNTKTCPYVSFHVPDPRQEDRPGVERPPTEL

| Compound | ED50 (Rattus norvegicus) | ED50 (Mus musculus) | IC50 [1] |
| --- | --- | --- | --- |
| O=C(CSc1nc2ccccc2c(=O)n1CCc1ccccn1)NNS(=O)(=O)c1ccc(Br)cc1 | > 200 mg/kg | – | – |
| O=C(CSc1nc2ccccc2c(=O)n1CCc1ccccn1)Nc1ccccc1 | > 200 mg/kg | – | – |
| O=C(CSc1nc2ccccc2c(=O)n1CCc1ccccn1)N/N=C/c1ccccc1 | 104 mg/kg | 54.5 mg/kg | – |
| COc1ccc(NC(=O)CSc2nc3ccccc3c(=O)n2CCc2ccccn2)cc1 | 81.5 mg/kg | 111 mg/kg | > 100 µM |
| COc1cc(NC(=O)CSc2nc3ccccc3c(=O)n2CCc2ccccn2)cc(OC)c1OC | 65.3 mg/kg | 60.3 mg/kg | > 100 µM |
| O=C(CSc1nc2ccccc2c(=O)n1CCc1ccccn1)NCc1ccccc1 | > 200 mg/kg | – | – |
| NC(=O)CSc1nc2ccccc2c(=O)n1CCc1ccccn1 | > 200 mg/kg | – | – |
| COc1cc(/C=N/NC(=O)CSc2nc3ccccc3c(=O)n2CCc2ccccn2)cc(OC)c1OC | > 200 mg/kg | – | – |
| O=C(CSc1nc2ccccc2c(=O)n1CCc1ccccn1)N/N=C/c1ccc(Cl)cc1 | 66.6 mg/kg | 33.7 mg/kg | – |
| COc1ccc(S(=O)(=O)NNC(=O)CSc2nc3ccccc3c(=O)n2CCc2ccccn2)cc1OC | > 200 mg/kg | – | – |
| O=C(CSc1nc2ccccc2c(=O)n1CCc1ccccn1)c1ccc(F)cc1 | 91.2 mg/kg | 78.1 mg/kg | > 100 µM |
| COc1ccc(/C=N/NC(=O)CSc2nc3ccccc3c(=O)n2CCc2ccccn2)cc1OC | 112 mg/kg | 78.5 mg/kg | – |
| COc1ccc(C(=O)CSc2nc3ccccc3c(=O)n2CCc2ccccn2)cc1 | > 200 mg/kg | – | – |
| O=C(CSc1nc2ccccc2c(=O)n1CCc1ccccn1)c1ccccc1 | > 200 mg/kg | – | – |
| O=C(CSc1nc2ccccc2c(=O)n1CCc1ccccn1)Nc1ccc(F)cc1 | 50.3 mg/kg | 12.3 mg/kg | > 100 µM |
| COc1cc(NC(=O)CCSc2nc3ccccc3c(=O)n2CCc2ccccn2)cc(OC)c1OC | 74.2 mg/kg | 80.3 mg/kg | > 100 µM |
| O=c1c2ccccc2nc(S)n1CCc1ccccn1 | 102 mg/kg | 98.2 mg/kg | > 100 µM |
| COc1ccc(/C=N/NC(=O)CSc2nc3ccccc3c(=O)n2CCc2ccccn2)cc1 | 67.5 mg/kg | 50.3 mg/kg | – |
| CCOC(=O)CSc1nc2ccccc2c(=O)n1CCc1ccccn1 | > 200 mg/kg | – | – |
| O=C(CSc1nc2ccccc2c(=O)n1CCc1ccccn1)NNS(=O)(=O)c1ccccc1 | > 200 mg/kg | – | – |
| NNC(=O)CSc1nc2ccccc2c(=O)n1CCc1ccccn1 | 74.5 mg/kg | 40.3 mg/kg | > 100 µM |
| Cc1ccc(-c2cc(C(F)(F)F)nn2-c2ccc(S(N)(=O)=O)cc2)cc1 [CELECOXIB] | – | 71 mg/kg | – |
| O=C(O)Cc1ccccc1Nc1c(Cl)cccc1Cl [DICLOFENAC] | 112 mg/kg | 100 mg/kg | – |

From ChEMBL document CHEMBL3813645, “Design, synthesis of 2,3-disubstitued 4(3H)-quinazolinone derivatives as anti-inflammatory and analgesic agents: COX-1/2 inhibitory activities and molecular docking studies” (Bioorg Med Chem, 2016)
